How the values were obtained:
Test in all cases: AUC of viability dose-response curve (% viability x log10 dose units); higher = less sensitive
Conditions in all cases: 48 h
NOMO1 = system: NOMO1
Summary of the method: (§1)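 Leukemia cells adapted to each medium were seeded in 1536-well plates (500 or 1000 cells/well) and given library compounds in DMSO for 48 h at 37°C. The 11 threefold doses spanned 47 μM to 0.79 nM, and CellTiter-Glo One luminescence was normalised per plate to DMSO and cell-free wells before four-parameter log-logistic fitting on log10 dose. Area under the curve was integrated with the trapezoidal rule, scaling curves above full viability and removing curves that failed quality control.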

P12-Ichikawa = system: P12-Ichikawa
Summary of the method: as §1

SEM cells = system: SEM cells
Summary of the method: as §1

[1] = RPMI 5 mM glucose + 10% dialyzed FBS

| Structure (SMILES) | AUC of viability dose-response curve (NOMO1; HPLM + 10% dialyzed FBS) | AUC of viability dose-response curve (NOMO1; RPMI 5 mM glucose + 10% FBS) | AUC of viability dose-response curve (NOMO1; [1]) | AUC of viability dose-response curve (P12-Ichikawa; HPLM + 10% dialyzed FBS) | AUC of viability dose-response curve (P12-Ichikawa; RPMI 5 mM glucose + 10% FBS) | AUC of viability dose-response curve (P12-Ichikawa; [1]) | AUC of viability dose-response curve (SEM cells; HPLM + 10% dialyzed FBS) | AUC of viability dose-response curve (SEM cells; RPMI 5 mM glucose + 10% FBS) | AUC of viability dose-response curve (SEM cells; [1]) |
| --- | --- | --- | --- | --- | --- | --- | --- | --- | --- |
| C[N+](C)([O-])CCNc1ccc(NCC[N+](C)(C)[O-])c2c1C(=O)c1c(O)ccc(O)c1C2=O | 383 | 365 | 391 | 354 | 302 | 305 | 298 | 272 | 281 |
| COC1(C[S+]([O-])c2ccccc2)CCN(CCc2c[nH]c3ccc(F)cc23)CC1 (configuration not stated) | 418 | 469 | 460 | 455 | 408 | 451 | 445 | 471 | 456 |
| CC(C)c1ccccc1Cc1cc(C(=O)Nc2ccc([S+](=O)([O-])c3ccccc3C(C)(C)C)cc2)c(O)c(O)c1O | 408 | 467 | 464 | 451 | 460 | 457 | 449 | 426 | 422 |
| CC(C)NCC(O)c1ccc(NS(C)(=O)=O)cc1 (configuration not stated) | 460 | 447 | 461 | 464 | 472 | 457 | 466 | 447 | 468 |
| CN[C@@H]1C[C@H]2O[C@@](C)([C@@H]1OC)n1c3ccccc3c3c4c(c5c6ccccc6n2c5c31)C(=O)N[C@H]4O | 279 | 264 | 289 | 280 | 249 | 271 | 220 | 226 | 232 |
| NC(=O)Nc1cc(-c2ccc(CN3CCOCC3)cc2)sc1C(N)=O | 369 | 331 | 338 | 236 | 246 | 266 | 262 | 240 | 240 |
| Nc1nc(OCc2ccccc2)c2nc[nH]c2n1 | 462 | 459 | 465 | 472 | 470 | 471 | 452 | 429 | 454 |
| COc1cccc2c1C(=O)c1c(O)c3c(c(O)c1C2=O)C[C@@](O)(C(C)=O)C[C@@H]3O[C@H]1C[C@H](N)[C@H](O)[C@H](C)O1 | 265 | 262 | 259 | 274 | 264 | 263 | 192 | 190 | 209 |
| CC(C)(C)NC(=O)[C@@H]1CN(Cc2cccnc2)CCN1C[C@@H](O)C[C@@H](Cc1ccccc1)C(=O)N[C@H]1c2ccccc2C[C@H]1O.O=S(=O)(O)O | 472 | 461 | 442 | 463 | 463 | 455 | 439 | 455 | 454 |
| COC(=O)[C@@H](N)CCCNC(=N)N[N+](=O)[O-] | 467 | 427 | 461 | 452 | 462 | 452 | 426 | 444 | 432 |
| CN(C)CCN(Cc1ccc(Cl)cc1)c1ccccn1.Cl | 419 | 430 | 418 | 462 | 410 | 391 | 404 | 456 | 452 |
| O=C1N\2CCC3=C([NH]C4=C3C=CC=C4)C2=N/C5=CC=CC=C15 | 465 | 461 | 466 | 465 | 457 | 454 | 461 | 456 | 451 |
| COC1=CC=C(C=C1)C2CC(=N/N2C3=CC=C(C=C3)[S+](N)([O-])=O)\C4=CC=CC=C4 (configuration not stated) | 330 | 355 | 337 | 387 | 354 | 340 | 323 | 293 | 282 |
| O=C(NNC(=O)c1ccc(CN[S+](=O)([O-])c2ccc(F)c(Cl)c2)cc1)c1ccccc1 | 468 | 437 | 438 | 460 | 466 | 470 | 463 | 449 | 423 |
| C#Cc1cccc(Nc2ncnc3cc(OC)c(OCCCCCCC(=O)NO)cc23)c1 | 276 | 313 | 300 | 253 | 254 | 244 | 264 | 216 | 254 |
| O=C(CCCCCCC(=O)Nc1ccccc1)NO | 406 | 412 | 427 | 378 | 368 | 367 | 370 | 372 | 369 |
| Cc1[nH]c(/C=C2\C(=O)Nc3ccc([S+](=O)([O-])Cc4c(Cl)cccc4Cl)cc32)c(C)c1C(=O)N1CCC[C@@H]1CN1CCCC1 | 435 | 438 | 432 | 455 | 456 | 430 | 370 | 394 | 361 |

| Structure (SMILES) | AUC of viability dose-response curve (NOMO1; HPLM + 10% dialyzed FBS) | AUC of viability dose-response curve (NOMO1; RPMI 5 mM glucose + 10% FBS) | AUC of viability dose-response curve (NOMO1; [1]) | AUC of viability dose-response curve (P12-Ichikawa; HPLM + 10% dialyzed FBS) | AUC of viability dose-response curve (P12-Ichikawa; RPMI 5 mM glucose + 10% FBS) | AUC of viability dose-response curve (P12-Ichikawa; [1]) | AUC of viability dose-response curve (SEM cells; HPLM + 10% dialyzed FBS) | AUC of viability dose-response curve (SEM cells; RPMI 5 mM glucose + 10% FBS) | AUC of viability dose-response curve (SEM cells; [1]) |
| --- | --- | --- | --- | --- | --- | --- | --- | --- | --- |
| CC(C)(C)c1cc(C(=O)O)c(NC(=O)Nc2ccc3[nH]ncc3c2)s1 | 427 | 418 | 422 | 433 | 426 | 438 | 442 | 447 | 440 |
| CN(C)CCCNC(=O)c1ccc(-c2cc(O)c3ncccc3c2)cc1 | 458 | 434 | 463 | 467 | 459 | 450 | 443 | 442 | 445 |
| CC[C@@]1(O)C[C@H](O[C@H]2C[C@H](N(C)C)[C@H](O[C@H]3C[C@H](O)[C@H](O[C@H]4CCC(=O)[C@H](C)O4)[C@H](C)O3)[C@H](C)O2)c2c(cc3c(c2O)C(=O)c2c(O)cccc2C3=O)[C@H]1C(=O)OC | 426 | 430 | 410 | 463 | 417 | 425 | 217 | 225 | 200 |
| C[S+]([O-])c1ccc(-c2nc(-c3ccc(F)cc3)c(-c3ccncc3)[nH]2)cc1 (configuration not stated) | 358 | 357 | 334 | 380 | 359 | 367 | 324 | 314 | 324 |
| CO[C@H]1C[C@@H]2CC[C@@H](C)[C@@](O)(O2)C(=O)C(=O)N2CCCC[C@H]2C(=O)O[C@H]([C@H](C)C[C@@H]2CC[C@@H](OCCO)[C@H](OC)C2)CC(=O)[C@H](C)/C=C(/C)[C@@H](O)[C@@H](OC)C(=O)[C@H](C)C[C@H](C)\C=C/C=C\C=C/1C | 393 | 421 | 370 | 420 | 329 | 362 | 240 | 234 | 233 |
| CC(NCc1ccc2c(c1)[nH]/c(=N\C(=O)c1ccc(-c3cn[nH]c3)s1)n2CC(C)(C)O)C(C)(C)C (configuration not stated) | 321 | 358 | 347 | 350 | 349 | 345 | 177 | 194 | 170 |
| CC(C)(C)NC(=O)[C@H]1CC[C@H]2[C@@H]3CC[C@H]4NC(=O)\C=C/[C@]4(C)[C@H]3CC[C@]12C | 382 | 365 | 383 | 421 | 421 | 450 | 449 | 457 | 459 |
| O=C1NC(=O)/C(=C/c2cccc(C(F)(F)F)c2)S1 | 448 | 458 | 463 | 471 | 466 | 453 | 463 | 463 | 467 |
| C#C[C@]1(O)CC[C@H]2[C@@H]3CCc4cc(OC)ccc4[C@H]3CC[C@@]21C | 453 | 457 | 457 | 433 | 468 | 471 | 444 | 470 | 471 |
| CC(C)NCC(O)COc1ccc(CCOCC2CC2)cc1 (configuration not stated) | 427 | 453 | 448 | 474 | 469 | 461 | 470 | 458 | 468 |
| O=C1NC(O)CCN1[C@@H]1O[C@H](CO)[C@@H](O)[C@H]1O (some centres not stated) | 435 | 459 | 457 | 456 | 437 | 467 | 463 | 443 | 465 |
| CN[S+](=O)([O-])CCc1ccc2[nH]cc(C3CCN(C)CC3)c2c1 | 454 | 435 | 450 | 460 | 460 | 466 | 428 | 452 | 432 |
| COc1ccnc(C[S+]([O-])c2nc3cc(OC(F)F)ccc3[nH]2)c1OC (configuration not stated) | 459 | 464 | 474 | 474 | 456 | 461 | 435 | 431 | 461 |
| CN(C)c1ccc2cc(C(=O)N[C@@H](CCCNC(=N)CCl)C(=O)NCc3ccccc3)ccc2c1 | 443 | 447 | 451 | 451 | 446 | 449 | 450 | 434 | 444 |
| OCCCNc1cc(-c2ccnc(Nc3cccc(Cl)c3)n2)ccn1 | 264 | 258 | 262 | 308 | 294 | 295 | 249 | 260 | 254 |
| CCCCCCCCCCCCCCCCCCOP(=O)([O-])OC1CC[N+](C)(C)CC1 | 469 | 470 | 467 | 470 | 462 | 465 | 455 | 468 | 442 |
